Measured values from ChEMBL document CHEMBL5614422, “Design, synthesis and biological evaluation of N-salicyloyl tryptamine derivatives as multifunctional neuroprotectants for the treatment of ischemic stroke” (Eur J Med Chem, 2024).
Calls of active or inactive are those of the source. No cut-off for these calls is given here.

Key:
HT-22 [1] = assay: Upregulation of Nrf2 protein level in OGD/R induced mouse HT-22 cells at 10 uM in presence of ML385 by Western blot analysis; assay type: functional, cell-based
[2] = target: T1, Nuclear factor erythroid 2-related factor 2 (Mus musculus) (UniProt Q60795); assay: Activation of Nrf2 in OGD/R induced mouse HT-22 cells assessed as induction of Nrf2 nuclear translocation at 1 to 10 uM by immunofluorescence analysis; assay type: cell-based; details: filed as activator, dose 1-10 µM
T1 sequence (whole entry): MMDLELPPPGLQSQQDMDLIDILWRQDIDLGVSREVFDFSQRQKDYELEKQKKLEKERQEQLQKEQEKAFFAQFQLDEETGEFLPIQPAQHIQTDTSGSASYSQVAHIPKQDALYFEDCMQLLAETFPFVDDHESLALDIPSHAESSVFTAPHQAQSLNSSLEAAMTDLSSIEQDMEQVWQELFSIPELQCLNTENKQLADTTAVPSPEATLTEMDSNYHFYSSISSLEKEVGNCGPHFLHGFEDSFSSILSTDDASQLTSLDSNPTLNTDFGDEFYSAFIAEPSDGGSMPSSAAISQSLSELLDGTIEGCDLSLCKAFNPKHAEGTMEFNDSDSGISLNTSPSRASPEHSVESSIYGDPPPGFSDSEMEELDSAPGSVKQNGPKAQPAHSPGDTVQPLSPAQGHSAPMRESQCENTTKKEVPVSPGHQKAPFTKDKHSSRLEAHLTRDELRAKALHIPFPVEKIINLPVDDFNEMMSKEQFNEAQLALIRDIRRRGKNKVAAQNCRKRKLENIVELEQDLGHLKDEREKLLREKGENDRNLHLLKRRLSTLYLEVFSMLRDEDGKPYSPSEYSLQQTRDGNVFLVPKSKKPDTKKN

Mus musculus [3] = assay: Neuroprotective activity against MCAO-R induced 12 hrs fasted male C57BL/6J mouse model assessed as decrease in S100 expression in CA1 by measuring decrease in fluorescence intensity administered once a day as ip dose for 7 days by immunofluorescence method; assay type: functional, organism-based; details: dose 10-50 mg/kg, time 7.0 day
Mus musculus [4] = assay: In vivo activation of Nrf2 pathway in MCAO-R induced 12 hrs fasted male C57BL/6J mouse model assessed as increase in GCLC expression level at 10 to 50 mg/kg, ip by Western blot analysis; assay type: functional, organism-based; details: dose 10-50 mg/kg
Mus musculus [5] = assay: Neuroprotective activity against MCAO-R induced 12 hrs fasted male C57BL/6J mouse model assessed as improvement in neuronal mortality at 10 to 50 mg/kg, ip administered once a day for 7 days by H and E staining based analysis; assay type: functional, organism-based; details: dose 10-50 mg/kg, time 7.0 day
HT-22 [6] = assay: Anti-ferroptotic activity against OGD/R induced mouse HT-22 cells increase in GSH level at 10 uM; assay type: functional, cell-based
HT-22 [7] = assay: Antioxidant activity against OGD/R induced oxidative stress in mouse HT-22 cells assessed as reduction in ROS release level at 1 to 10 uM by DCFH-DA staining based flow cytometry analysis; assay type: functional, cell-based; details: dose 1-10 µM
[8] = target: Phospholipid hydroperoxide glutathione peroxidase GPX4 (Mus musculus) (UniProt O70325); assay: In vivo activation of Nrf2 pathway in MCAO-R induced 12 hrs fasted male C57BL/6J mouse model assessed as increase in GPX4 expression level at 10 to 50 mg/kg, ip by Western blot analysis; assay type: functional, organism-based; details: dose 10-50 mg/kg
HT-22 [9] = assay: Antioxidant activity against OGD/R induced oxidative stress in mouse HT-22 cells assessed as reduction in ROS release level at 10 uM in presence of ML385by DCFH-DA staining based flow cytometry analysis; assay type: functional, cell-based
Mus musculus [10] = assay: Neuroprotective activity against MCAO-R induced 12 hrs fasted male C57BL/6J mouse model assessed as alleviation of neurological impairment at 10 to 50 mg/kg, ip administered once a day for 7 days by H and E staining based analysis; assay type: functional, organism-based; details: dose 10-50 mg/kg, time 7.0 day
HT-22 [11] = assay: Upregulation of Nrf2 mRNA level in OGD/R induced mouse HT-22 cells at 1 to 10 uM by qRT-PCR analysis; assay type: functional, cell-based; details: dose 1-10 µM
HT-22 [12] = assay: Anti-ferroptotic activity against OGD/R induced mouse HT-22 cells decrease as in Fe2+ level at 10 uM by cell ferrous calorimetry analysis; assay type: functional, cell-based
HT-22 [13] = assay: Anti-ferroptotic activity against OGD/R induced mouse HT-22 cells increase in GSH level at 10 uM in presence of ML385; assay type: functional, cell-based
Mus musculus [14] = assay: Neuroprotective activity against MCAO-R induced 12 hrs fasted male C57BL/6J mouse model assessed as increase in SOD activity in cerebral ischemic tissue at 10 to 50 mg/kg, ip administered once a day for 7 days; assay type: functional, organism-based; details: dose 10-50 mg/kg, time 7.0 day
Mus musculus [15] = assay: Neuroprotective activity against MCAO-R induced 12 hrs fasted male C57BL/6J mouse model assessed as improvement in brain tissue structure at 10 to 50 mg/kg, ip administered once a day for 7 days by H and E staining based analysis; assay type: functional, organism-based; details: dose 10-50 mg/kg, time 7.0 day
HT-22 [16] = assay: Induction of morphological changes in OGD/R induced mouse HT-22 cells assessed as attenuation of cell shrinkage by microscopic based analysis; assay type: functional
HT-22 [17] = assay: Induction of morphological changes in OGD/R induced mouse HT-22 cells assessed as attenuation of synaptic shortening by microscopic based analysis; assay type: functional, cell-based
Mus musculus [18] = assay: Neuroprotective activity against MCAO-R induced 12 hrs fasted male C57BL/6J mouse model assessed as decrease in S100 expression in cortex by measuring decrease in fluorescence intensity administered once a day as ip dose for 7 days by immunofluorescence method; assay type: functional, organism-based; details: dose 10-50 mg/kg, time 7.0 day
Mus musculus [19] = assay: Neuroprotective activity against MCAO-R induced 12 hrs fasted male C57BL/6J mouse model assessed as reduction in infarct volume administered as ip once a day for 7 days by TTC staining based analysis; assay type: functional, organism-based; details: time 7.0 day
HT-22 [20] = assay: Upregulation of GPX4 protein level in OGD/R induced mouse HT-22 cells at 10 uM in presence of ML385 by Western blot analysis; assay type: functional, cell-based
Mus musculus [21] = assay: Neuroprotective activity against MCAO-R induced 12 hrs fasted male C57BL/6J mouse model assessed as reduction in neurologic deficit score at 10 to 50 mg/kg, ip for 7 days by […]; assay type: functional, organism-based; details: dose 10-50 mg/kg, time 7.0 day
HT-22 [22] = assay: Anti-ferroptotic activity in mouse HT-22 cells assessed as prevention of erastin-induced cell death at 1 to 10 uM by MTT assay; assay type: functional, cell-based; details: dose 1-10 µM
Mus musculus [23] = species: Mus musculus; assay: Antiinflammatory activity in MCAO-R induced 12 hrs fasted male C57BL/6J mouse model assessed as reduction in IL-6 level by ELISA method; assay type: functional, organism-based
HT-22 [24] = assay: Cytoprotective activity against OGD/R induced mouse HT-22 cells assessed as inhibition of intracellular LDH release at 10 uM in presence of ML385; assay type: functional, cell-based
HT-22 [25] = assay: Upregulation of GPX4 protein level in OGD/R induced mouse HT-22 cells at 1 to 10 uM by Western blot analysis; assay type: functional, cell-based; details: dose 1-10 µM
HT-22 [26] = assay: Cytoprotective activity against OGD/R induced mouse HT-22 cells assessed as increase in cell viability at 10 uM measured after 24 hrs in presence of ML385 by MTT assay; assay type: functional, cell-based
HT-22 [27] = assay: Antioxidant activity against OGD/R induced damage in mouse HT-22 cells assessed as decrease in proportion of mitochondrial depolarized cells by JC-1 fluorescence based flow cytometry analysis; assay type: functional, cell-based; details: dose 1-10 µM

Sequence of Phospholipid hydroperoxide glutathione peroxidase GPX4 (Mus musculus) (O70325 whole entry): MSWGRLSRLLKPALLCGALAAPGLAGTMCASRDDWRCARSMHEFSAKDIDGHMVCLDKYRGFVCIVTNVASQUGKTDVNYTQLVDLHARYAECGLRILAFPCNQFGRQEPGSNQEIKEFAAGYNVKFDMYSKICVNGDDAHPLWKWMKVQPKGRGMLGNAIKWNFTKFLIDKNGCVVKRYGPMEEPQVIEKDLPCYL

For `Cc1ccc(C(=O)NCCc2c[nH]c3ccc(N(C)C)cc23)c(O)c1`, the Activity (HT-22 [1]) was “inactive”, the Activity [2] was “Active” and the Activity (Mus musculus [3]) was “Dose-Dependent Effect”. For the same molecule, the Activity (Mus musculus [4]) was “Active”, the Activity (Mus musculus [5]) was “Active” and the Activity (HT-22 [6]) was “Active”. For the same molecule, the Activity (HT-22 [7]) was “Active”, the Activity [8] was “Active” and the Activity (HT-22 [9]) was “inactive”. The Activity (Mus musculus [10]) was “Active”, the Activity (HT-22 [11]) was “Active” and the Activity (HT-22 [12]) was “Active”. The Activity (HT-22 [13]) was “inactive”, the Activity (Mus musculus [14]) was “Active” and the Activity (Mus musculus [15]) was “Active”. The Activity (HT-22 [16]) was “Active”, the Activity (HT-22 [17]) was “Active” and the Activity (Mus musculus [18]) was “Dose-Dependent Effect”. The Activity (Mus musculus [19]) was “Dose-Dependent Effect”, the Activity (HT-22 [20]) was “inactive” and the Activity (Mus musculus [21]) was “Active”. For the same molecule, the Activity (HT-22 [22]) was “Active”, the Activity (Mus musculus [23]) was “Active” and the Activity (HT-22 [24]) was “inactive”. For the same molecule, the Activity (HT-22 [25]) was “Active”, the Activity (HT-22 [26]) was “inactive” and the Activity (HT-22 [27]) was “Dose-Dependent Effect”.
